Among the data in patent US8877741B2, “Pyrrolidine derivatives, pharmaceutical compositions and uses thereof” (Boehringer Ingelheim International GmbH, priority 2013, dated 2014) are IC50 values, retold here.

The target of this assay is human ACC2 (Homo sapiens (Human), UniProt O00763). In words: ACC2 assay, spectrophotometric 384 well assay (NADH-linked kinetic method). It counts as biochemical. The following applies: human ACC2 construct lacking the 128 N-terminal amino acids; coupled lactate dehydrogenase/pyruvate kinase reaction, 340 nm, 25° C. The essentials:
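ADP formation was monitored as NADH consumption at 340 nm for 15 min at 25 °C, using baculovirus-expressed human ACC2 missing its first 128 amino acids, with 500 μM ATP and 2000 μM each of acetyl-CoA and NADH (final). IC50 was fitted by non-linear regression on low-control-subtracted slopes.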

The structures appear in SMILES notation.

human ACC2, sequence (O00763 129-2458): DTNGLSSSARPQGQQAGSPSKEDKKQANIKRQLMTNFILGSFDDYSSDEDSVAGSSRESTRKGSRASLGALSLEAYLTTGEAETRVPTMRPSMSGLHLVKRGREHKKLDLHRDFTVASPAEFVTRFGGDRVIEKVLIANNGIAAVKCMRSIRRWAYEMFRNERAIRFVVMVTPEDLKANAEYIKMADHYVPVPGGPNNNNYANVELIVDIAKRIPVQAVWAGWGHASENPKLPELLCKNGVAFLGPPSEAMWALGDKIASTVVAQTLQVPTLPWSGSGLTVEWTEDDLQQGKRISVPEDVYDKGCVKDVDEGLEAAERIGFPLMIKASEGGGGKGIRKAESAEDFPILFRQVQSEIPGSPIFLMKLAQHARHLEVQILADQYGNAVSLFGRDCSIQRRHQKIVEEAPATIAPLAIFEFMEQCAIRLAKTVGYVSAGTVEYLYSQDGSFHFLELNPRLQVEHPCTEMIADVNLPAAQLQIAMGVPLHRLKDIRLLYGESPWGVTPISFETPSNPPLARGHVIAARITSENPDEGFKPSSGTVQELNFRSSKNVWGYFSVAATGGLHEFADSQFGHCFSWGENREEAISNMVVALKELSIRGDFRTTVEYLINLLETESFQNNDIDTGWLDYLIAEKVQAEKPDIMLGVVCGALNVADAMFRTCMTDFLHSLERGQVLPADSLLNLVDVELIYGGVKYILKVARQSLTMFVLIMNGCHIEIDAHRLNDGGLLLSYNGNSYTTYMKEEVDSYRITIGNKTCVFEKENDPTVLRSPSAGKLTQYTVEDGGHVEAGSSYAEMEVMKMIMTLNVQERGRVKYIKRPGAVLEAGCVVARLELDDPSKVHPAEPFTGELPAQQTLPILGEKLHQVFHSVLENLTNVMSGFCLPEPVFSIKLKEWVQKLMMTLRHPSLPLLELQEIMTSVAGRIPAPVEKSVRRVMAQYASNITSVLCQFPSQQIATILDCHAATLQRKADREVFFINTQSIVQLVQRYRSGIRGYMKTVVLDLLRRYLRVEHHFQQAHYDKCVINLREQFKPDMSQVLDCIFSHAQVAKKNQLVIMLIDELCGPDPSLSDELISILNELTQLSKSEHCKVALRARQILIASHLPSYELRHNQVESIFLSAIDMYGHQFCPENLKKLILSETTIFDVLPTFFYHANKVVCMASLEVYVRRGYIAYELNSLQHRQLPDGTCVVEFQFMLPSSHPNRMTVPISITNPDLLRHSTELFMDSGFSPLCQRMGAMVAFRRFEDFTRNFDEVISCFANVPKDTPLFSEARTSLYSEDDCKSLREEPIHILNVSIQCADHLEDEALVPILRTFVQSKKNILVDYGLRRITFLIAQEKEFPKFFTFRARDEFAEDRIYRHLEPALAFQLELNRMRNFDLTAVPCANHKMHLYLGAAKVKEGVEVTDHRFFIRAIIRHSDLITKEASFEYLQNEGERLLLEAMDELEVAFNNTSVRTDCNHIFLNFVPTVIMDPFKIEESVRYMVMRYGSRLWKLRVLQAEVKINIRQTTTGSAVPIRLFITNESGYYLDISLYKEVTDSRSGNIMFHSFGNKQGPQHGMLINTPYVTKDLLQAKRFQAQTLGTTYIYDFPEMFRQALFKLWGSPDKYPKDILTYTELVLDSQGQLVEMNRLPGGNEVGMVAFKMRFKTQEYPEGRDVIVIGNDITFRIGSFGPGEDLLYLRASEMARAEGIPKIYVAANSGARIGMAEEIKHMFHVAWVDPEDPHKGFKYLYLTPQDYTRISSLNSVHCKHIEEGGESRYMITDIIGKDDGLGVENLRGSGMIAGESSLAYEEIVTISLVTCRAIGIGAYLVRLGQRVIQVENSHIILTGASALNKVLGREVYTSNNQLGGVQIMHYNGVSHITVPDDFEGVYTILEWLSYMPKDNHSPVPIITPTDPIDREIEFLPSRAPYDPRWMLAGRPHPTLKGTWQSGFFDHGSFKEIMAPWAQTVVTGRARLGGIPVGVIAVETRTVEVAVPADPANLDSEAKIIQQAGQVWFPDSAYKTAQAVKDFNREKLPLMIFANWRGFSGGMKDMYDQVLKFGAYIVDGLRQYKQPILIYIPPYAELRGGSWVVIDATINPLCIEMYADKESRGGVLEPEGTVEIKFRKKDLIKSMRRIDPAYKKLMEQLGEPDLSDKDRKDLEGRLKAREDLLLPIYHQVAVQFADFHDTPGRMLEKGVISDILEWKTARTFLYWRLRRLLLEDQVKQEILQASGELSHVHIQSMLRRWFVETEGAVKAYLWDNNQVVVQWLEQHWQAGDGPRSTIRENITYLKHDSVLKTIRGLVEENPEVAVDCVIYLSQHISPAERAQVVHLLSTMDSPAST

As usually defined, the IC50 is the midpoint of a concentration-inhibition curve. The low end stands for greater potency in that assay, the high end for weaker potency in that assay. In turn, `CC(=O)N[C@@H](C)c1ccc(OC2CCN(c3cc(OC(C)C)ncc3F)C2)cc1` (stereo partly drawn) [Example 1.74] had an IC50 of 100 nM. That is a sub-micromolar value. The same measure for `CCCOc1nccc(N2CC[C@@H](Oc3ccc([C@H](C)NC(C)=O)cc3)C2)c1C` [Example 9.55]: 59 nM; for `C[C@H](NC(=O)CC#N)c1ccc(OC2CCN(c3ccnc(OCC(F)F)c3)C2)cc1` (stereo partly drawn) [Example 2.116]: 362 nM; for `CC(C)Oc1cc(N2CCC(Oc3ccc([C@H](C)NC(=O)C4(C(F)(F)F)CC4)cc3)C2)ccn1` (stereo partly drawn) [Example 2.17]: 607 nM. Turning to `CC(=O)N[C@@H](C)c1ccc(O[C@@H]2CCN(c3ccnc(OCC4CC4C)c3)C2)cc1` (stereo partly drawn) [Example 9.23], the IC50 was 45 nM. `CCc1cccc(N2CCC(Oc3ccc([C@H](C)NC(C)=O)cc3)C2)n1` (stereo partly drawn) [Example 1.60]: the IC50 is 202 nM.

The compound `CC(C)Oc1cc(N2CCC(Oc3ccc([C@H](C)NC(=O)C4(C)CC4)cc3)C2)ccn1` (stereo partly drawn) [Example 2.21] yielded an IC50 of 389 nM. This IC50 lies about 1.9-fold higher than the previous one. `CC(=O)N[C@@H](C)c1ccc(O[C@@H]2CCN(c3ccnc(N4CCC(C)(O)C4)c3F)C2)cc1` (stereo partly drawn) [Example 10.52] showed an IC50 of 80 nM. The figure for `Cc1nocc1C(=O)N[C@@H](C)c1ccc(OC2CCN(c3cccc(C(F)(F)F)n3)C2)cc1` (stereo partly drawn) [Example 2.43] is 57 nM; for `CCC(=O)N[C@@H](C)c1ccc(OC2CCN(c3ccc(OC[C@H]4CC4(F)F)cn3)C2)cc1` (stereo partly drawn) [Example 2.91] it is 67 nM; for `CCCOc1nccc(N2CC[C@@H](Oc3ccc([C@H](C)NC(C)=O)cc3)C2)c1Cl` [Example 9.78] it is 57 nM. Take `CC(=O)N[C@@H](C)c1ccc(O[C@@H]2CCN(c3ccnc(N4CCC(F)(F)C4)c3Cl)C2)cc1` [Example 1.132]: the IC50 was determined as 41 nM. In turn, `C[C@H](NC(=O)c1cnn(C)c1)c1ccc(OC2CCN(c3cccc(C(F)(F)F)n3)C2)cc1` (stereo partly drawn) [Example 2.36] showed an IC50 of 130 nM.

In turn, `CC(=O)N[C@@H](C)c1ccc(O[C@@H]2CCN(c3ccnc(OCC4(C)CC4)c3)C2)cc1` [Example 9.16] had an IC50 of 35 nM. The figure for `CCCNc1nccc(N2CCC(Oc3ccc([C@H](C)NC(=O)OC)cc3)C2)c1F` (stereo partly drawn) [Example 4.8] is 77 nM; for `CCCOc1ccnc(N2CC[C@@H](Oc3ccc([C@H](C)NC(C)=O)cc3)C2)c1F` [Example 9.68] it is 251 nM. `C[C@H](NC(=O)c1cn[nH]c1)c1ccc(OC2CCN(c3ccnc(OCC(F)F)c3)C2)cc1` (stereo partly drawn) [Example 2.99] gave an IC50 of 85 nM. Compared with the last compound, the IC50 is about 3-fold lower. The figure for `CCCN(C)c1nc(N2CC[C@@H](Oc3ccc([C@H](C)NC(C)=O)cc3)C2)c(F)cc1F` [Example 10.7] is 505 nM; for `COc1c(N2CC[C@@H](Oc3ccc([C@H](C)NC(C)=O)cc3)C2)ccnc1OC(C)C` [Example 1.150] it is 69 nM; for `CC(=O)N[C@@H](C)c1ccc(O[C@@H]2CCN(c3ccnc(OCc4cccc(F)c4)c3)C2)cc1` [Example 9.21] it is 477 nM. With `CC(=O)N[C@@H](C)c1ccc(O[C@@H]2CCN(c3ccnc(C4CC4)c3F)C2)cc1` [Example 15, N—((S)-1-(4-((R)-1-(2-cyclopropyl-fluoropyridin-4-yl)pyrrolidin-3-yloxy)phenyl)-ethyl)-acetamide], the IC50 was found to be 245 nM. `COc1c(N2CC[C@@H](Oc3ccc([C@H](C)NC(C)=O)cc3)C2)ccnc1N(C)C` [Example 1.137] gave an IC50 of 633 nM. As to `CC(=O)N[C@@H](C)c1ccc(OC2CCN(c3cccc(C4(S(C)(=O)=O)CC4)n3)C2)cc1` (stereo partly drawn) [Example 1.79], half-maximal inhibition (IC50) was put at 950 nM.

As to `CC(=O)N[C@@H](C)c1ccc(O[C@@H]2CCN(c3ncc(C(F)(F)F)cc3F)C2)cc1` [Example 8.3], the IC50 was 755 nM. As to `CCCOc1ccc(N2CCC(Oc3ccc([C@H](C)NC(C)=O)cc3)C2)nc1` (stereo partly drawn) [Example 1.2], the IC50 was determined as 146 nM. The same measure for `CC(=O)N[C@@H](C)c1ccc(O[C@@H]2CCN(c3ccnc(OCC(F)F)c3F)C2)cc1` [Example 9.52]: 61 nM. The same measure for `CC(=O)N[C@@H](C)c1ccc(OC2CCN(c3ccnc(OCC4CC4)c3)C2)cc1` (stereo partly drawn) [Example 1.15]: 60 nM; for `CC(=O)N[C@@H](C)c1ccc(O[C@@H]2CCN(c3cccc(N4CCC(C)C4)n3)C2)cc1` (stereo partly drawn) [Example 10.10]: 115 nM. `CC(=O)N[C@@H](C)c1ccc(OC2CCN(c3ccnc(OCC4CC4(F)F)c3)C2)cc1` (stereo partly drawn) [Example 1.19] showed an IC50 of 54 nM. Compound `CC(=O)N[C@@H](C)c1ccc(O[C@@H]2CCN(c3cc(C(F)(F)F)ccn3)C2)cc1` [Example 8.7] came in with an IC50 of 910 nM. This IC50 is about 17-fold higher than that of the compound before. The figure for `CC(C)Oc1cc(N2CCC(Oc3ccc([C@H](C)NC(=O)c4cn[nH]c4)cc3)C2)ccn1` (stereo partly drawn) [Example 2.8] is 65 nM; for `C[C@H](NC(=O)c1cnco1)c1ccc(OC2CCN(c3ccnc(OCC(F)F)c3)C2)cc1` (stereo partly drawn) [Example 2.111] it is 107 nM. The figure for `C[C@H](NC(=O)C1CCC1)c1ccc(OC2CCN(c3cccc(C(F)(F)F)n3)C2)cc1` (stereo partly drawn) [Example 2.48] is 891 nM; for `C[C@H](NC(=O)CC#N)c1ccc(OC2CCN(c3ccc(OCC4CC4(F)F)cn3)C2)cc1` (stereo partly drawn) [Example 2.119] it is 235 nM.

`COCCN(C)C(=O)N[C@@H](C)c1ccc(OC2CCN(c3ccc(OCC4CC4(F)F)cn3)C2)cc1` (stereo partly drawn) [Example 3.7] returned an IC50 of 444 nM. For `CC(=O)N[C@@H](C)c1ccc(O[C@@H]2CCN(c3ccnc(N4CCOCC4)c3F)C2)cc1` [Example 10.15], the IC50 came out at 150 nM. `COC1CCN(c2cccc(N3CC[C@@H](Oc4ccc([C@H](C)NC(C)=O)cc4)C3)n2)CC1` [Example 10.42] showed an IC50 of 759 nM.

Turning to `CCCOc1cc(N2CCC(Oc3ccc([C@H](C)NC(C)=O)cc3)C2)c(C)cn1` (stereo partly drawn) [Example 1.90], the IC50 stood at 379 nM. Against the preceding compound, the IC50 is about 2-fold lower. The figure for `CC(=O)N[C@@H](C)c1ccc(OC2CCN(c3ccc(OC4CCCC4)cn3)C2)cc1` (stereo partly drawn) [Example 1.27] is 70 nM; for `CC(=O)N[C@@H](C)c1ccc(OC2CCN(c3ncc(OCC4CC4)cc3F)C2)cc1` (stereo partly drawn) [Example 1.7] it is 137 nM; for `COC(=O)N[C@@H](C)c1ccc(OC2CCN(c3ccnc(N4CCC(F)(F)C4)c3F)C2)cc1` (stereo partly drawn) [Example 4.7] it is 134 nM.

As for `CC(=O)N[C@@H](C)c1ccc(OC2CCN(c3cccc(C(F)F)n3)C2)cc1` (stereo partly drawn) [Example 1.64], half-maximal inhibition (IC50) was put at 154 nM. `CC(=O)N[C@@H](C)c1ccc(O[C@@H]2CCN(c3ccnc(C(=O)Nc4ccc(Cl)cc4)c3)C2)cc1` [Example 8.11] yielded an IC50 of 1100 nM. Against the preceding compound, the IC50 is about 7.1-fold higher. Regarding `Cc1nnsc1C(=O)N[C@@H](C)c1ccc(OC2CCN(c3cccc(C(F)(F)F)n3)C2)cc1` (stereo partly drawn) [Example 2.53], inhibition was half-maximal at 314 nM (IC50). The same measure for `CCOc1ccc(N2CCC(Oc3ccc([C@H](C)NC(C)=O)cc3)C2)cn1` (stereo partly drawn) [Example 1.5]: 510 nM; for `CC(C#N)C(=O)N[C@@H](C)c1ccc(OC2CCN(c3ccnc(OCC(F)F)c3)C2)cc1` (stereo partly drawn) [Example 2.104]: 658 nM. Compound `CC(=O)N[C@@H](C)c1ccc(O[C@@H]2CCN(c3ccnc(N4CCC5(CC5)C4)c3F)C2)cc1` [Example 1.104] registered an IC50 of 24 nM. Compared with the last compound, the IC50 is about 27-fold lower. In turn, `CC(=O)N[C@@H](C)c1ccc(O[C@@H]2CCN(c3ccnc(N(C)CC(F)(F)F)c3F)C2)cc1` [Example 1.112] displayed an IC50 of 68 nM. This IC50 is about 2.8-fold higher than that of the compound before.
